According to ChEMBL document CHEMBL2417483, “Synthesis of thiosemicarbazones derived from N-(4-hippuric acid)thiosemicarbazide and different carbonyl compounds as antimicrobial agents” (2013):
Converted amounts (≈) assume the structure as drawn.

Columns and labels:
Klebsiella pneumoniae [1] = assay: Antibacterial activity against Klebsiella pneumoniae ATCC 13883 assessed as growth inhibition at 1 mg/mL after 24 hrs by agar well diffusion assay; format: functional; details: ATCC 13883, 24 h, read-out: DIZ
Micrococcus luteus [2] = assay: Antibacterial activity against Sarcina luteus assessed as growth inhibition at 1 mg/mL after 24 hrs by agar well diffusion assay; format: functional; details: read-out: DIZ
Saccharomyces cerevisiae [3] = assay: Antifungal activity against Saccharomyces cerevisiae assessed as growth inhibition at 1 mg/mL after 24 hrs by agar well diffusion assay; format: functional; details: read-out: DIZ
Candida albicans [4] = assay: Antifungal activity against Candida albicans NRRLY 477 assessed as growth inhibition at 1 mg/mL after 24 hrs by agar well diffusion assay; format: functional; details: NRRLY 477, 24 h, read-out: DIZ
Bacillus spizizenii [5] = assay: Antibacterial activity against Bacillus subtilis ATCC 6633 assessed as growth inhibition at 1 mg/mL after 24 hrs by agar well diffusion assay; format: functional; details: ATCC 6633, 24 h, read-out: DIZ
Priestia megaterium [6] = assay: Antibacterial activity against Bacillus megaterium ATCC 9885 assessed as growth inhibition at 1 mg/mL after 24 hrs by agar well diffusion assay; format: functional; details: ATCC 9885, 24 h, read-out: DIZ
Staphylococcus aureus [7] = assay: Antibacterial activity against Staphylococcus aureus ATCC 29213 assessed as growth inhibition at 1 mg/mL after 24 hrs by agar well diffusion assay; format: functional; details: ATCC 29213, 24 h, read-out: DIZ
Escherichia coli [8] = assay: Antibacterial activity against Escherichia coli ATCC 25922 assessed as growth inhibition at 1 mg/mL after 24 hrs by agar well diffusion assay; format: functional; details: ATCC 25922, 24 h, read-out: DIZ
Pseudomonas aeruginosa [9] = assay: Antibacterial activity against Pseudomonas aeruginosa ATCC 27953 assessed as growth inhibition at 1 mg/mL after 24 hrs by agar well diffusion assay; format: functional; details: ATCC 27953, 24 h, read-out: DIZ
Proteus vulgaris [10] = assay: Antibacterial activity against Proteus vulgaris assessed as growth inhibition at 1 mg/mL after 24 hrs by agar well diffusion assay; format: functional; details: read-out: DIZ
Priestia megaterium [11] = assay: Bacteriostatic activity against Bacillus megaterium ATCC 9885 after 24 hrs by two-fold serial dilution assay; format: functional; details: ATCC 9885, 24 h
Klebsiella pneumoniae [12] = assay: Bacteriostatic activity against Klebsiella pneumoniae ATCC 13883 after 24 hrs by two-fold serial dilution assay; format: functional; details: ATCC 13883, 24 h
Micrococcus luteus [13] = assay: Bacteriostatic activity against Sarcina luteus after 24 hrs by two-fold serial dilution assay; format: functional
Escherichia coli [14] = assay: Bacteriostatic activity against Escherichia coli ATCC 25922 after 24 hrs by two-fold serial dilution assay; format: functional; details: ATCC 25922, 24 h
Saccharomyces cerevisiae [15] = assay: Fungistatic activity against Saccharomyces cerevisiae after 24 hrs by two-fold serial dilution assay; format: functional
Staphylococcus aureus [16] = assay: Bacteriostatic activity against Staphylococcus aureus ATCC 29213 after 24 hrs by two-fold serial dilution assay; format: functional; details: ATCC 29213, 24 h
Proteus vulgaris [17] = assay: Bacteriostatic activity against Proteus vulgaris after 24 hrs by two-fold serial dilution assay; format: functional
Pseudomonas aeruginosa [18] = assay: Bacteriostatic activity against Pseudomonas aeruginosa ATCC 27953 after 24 hrs by two-fold serial dilution assay; format: functional; details: ATCC 27953, 24 h
Bacillus spizizenii [19] = assay: Bacteriostatic activity against Bacillus subtilis ATCC 6633 after 24 hrs by two-fold serial dilution assay; format: functional; details: ATCC 6633, 24 h
Candida albicans [20] = assay: Fungistatic activity against Candida albicans NRRLY 477 after 24 hrs by two-fold serial dilution assay; format: functional; details: NRRLY 477, 24 h
Escherichia coli [21] = assay: Potency index, ratio of ciprofloxacin MIC to compound MIC for Escherichia coli ATCC 25922; format: functional
Pseudomonas aeruginosa [22] = assay: Potency index, ratio of ciprofloxacin MIC to compound MIC for Pseudomonas aeruginosa ATCC 27953; format: functional
Micrococcus luteus [23] = assay: Potency index, ratio of ciprofloxacin MIC to compound MIC for Sarcina luteus; format: functional
Klebsiella pneumoniae [24] = assay: Potency index, ratio of ciprofloxacin MIC to compound MIC for Klebsiella pneumoniae ATCC 13883; format: functional
Proteus vulgaris [25] = assay: Potency index, ratio of ciprofloxacin MIC to compound MIC for Proteus vulgaris; format: functional
Klebsiella pneumoniae [26] = assay: microbe, parasite or virus in culture; details: ATCC 13883, 24 h, read-out: DIZ
Description: Antibacterial activity against Klebsiella pneumoniae ATCC 13883 assessed as growth inhibition at 0.5 mg/mL after 24 hrs by agar well diffusion assay

Micrococcus luteus [27] = assay: Antibacterial activity against Sarcina luteus assessed as growth inhibition at 0.5 mg/mL after 24 hrs by agar well diffusion assay; format: functional; details: read-out: DIZ
Staphylococcus aureus [28] = assay: microbe, parasite or virus in culture; details: ATCC 29213, 24 h, read-out: DIZ
Description: Antibacterial activity against Staphylococcus aureus ATCC 29213 assessed as growth inhibition at 0.5 mg/mL after 24 hrs by agar well diffusion assay

Bacillus spizizenii [29] = assay: Antibacterial activity against Bacillus subtilis ATCC 6633 assessed as growth inhibition at 0.5 mg/mL after 24 hrs by agar well diffusion assay; format: functional; details: ATCC 6633, 24 h, read-out: DIZ
Priestia megaterium [30] = assay: Antibacterial activity against Bacillus megaterium ATCC 9885 assessed as growth inhibition at 0.5 mg/mL after 24 hrs by agar well diffusion assay; format: functional; details: ATCC 9885, 24 h, read-out: DIZ
Pseudomonas aeruginosa [31] = assay: microbe, parasite or virus in culture; details: ATCC 27953, 24 h, read-out: DIZ
Description: Antibacterial activity against Pseudomonas aeruginosa ATCC 27953 assessed as growth inhibition at 0.5 mg/mL after 24 hrs by agar well diffusion assay

Proteus vulgaris [32] = assay: Antibacterial activity against Proteus vulgaris assessed as growth inhibition at 0.5 mg/mL after 24 hrs by agar well diffusion assay; format: functional; details: read-out: DIZ
Candida albicans [33] = assay: Antifungal activity against Candida albicans NRRLY 477 assessed as growth inhibition at 0.5 mg/mL after 24 hrs by agar well diffusion assay; format: functional; details: NRRLY 477, 24 h, read-out: DIZ
Saccharomyces cerevisiae [34] = assay: Antifungal activity against Saccharomyces cerevisiae assessed as growth inhibition at 0.5 mg/mL after 24 hrs by agar well diffusion assay; format: functional; details: read-out: DIZ

| Structure (SMILES) | zone of inhibition at 1000 µg/mL (Klebsiella pneumoniae [1]) [mm] | zone of inhibition at 1000 µg/mL (Micrococcus luteus [2]) [mm] | zone of inhibition at 1000 µg/mL (Saccharomyces cerevisiae [3]) [mm] | zone of inhibition at 1000 µg/mL (Candida albicans [4]) [mm] | zone of inhibition at 1000 µg/mL (Bacillus spizizenii [5]) [mm] | zone of inhibition at 1000 µg/mL (Priestia megaterium [6]) [mm] | zone of inhibition at 1000 µg/mL (Staphylococcus aureus [7]) [mm] | zone of inhibition at 1000 µg/mL (Escherichia coli [8]) [mm] | zone of inhibition at 1000 µg/mL (Pseudomonas aeruginosa [9]) [mm] | zone of inhibition at 1000 µg/mL (Proteus vulgaris [10]) [mm] | also measured |
| --- | --- | --- | --- | --- | --- | --- | --- | --- | --- | --- | --- |
| O=C(O)CNC(=O)c1ccc(NC(=S)N/N=C/c2cccc(Br)c2)cc1 | 9 | 18 | 11 | 0 | 13 | 18 | 18 | 20 | 11 | 0 |  |
| Cc1ccc(/C=N/NC(=S)Nc2ccc(C(=O)NCC(=O)O)cc2)cc1 | 0 | 24 | 0 | 0 | 0 | 9 | 10 | 0 | 0 | 20 |  |
| O=C(O)CNC(=O)c1ccc(NC(=S)N/N=C/c2ccc(F)cc2)cc1 | 30 | 28 | 20 | 20 | 20 | 19 | 28 | 31 | 30 | 26 | MIC (Priestia megaterium [11]): 12.5 µg/mL (≈ 33.4 µM); MIC (Klebsiella pneumoniae [12]): 12.5 µg/mL (≈ 33.4 µM); MIC (Micrococcus luteus [13]): 25 µg/mL (≈ 66.8 µM); MIC (Escherichia coli [14]): 6.25 µg/mL (≈ 16.7 µM); MIC (Saccharomyces cerevisiae [15]): 12.5 µg/mL (≈ 33.4 µM); MIC (Staphylococcus aureus [16]): 6.25 µg/mL (≈ 16.7 µM); MIC (Proteus vulgaris [17]): 12.5 µg/mL (≈ 33.4 µM); MIC (Pseudomonas aeruginosa [18]): 25 µg/mL (≈ 66.8 µM); MIC (Bacillus spizizenii [19]): 12.5 µg/mL (≈ 33.4 µM); MIC (Candida albicans [20]): 50 µg/mL (≈ 134 µM); PI (Escherichia coli [21]): 2 |
| O=C(O)CNC(=O)c1ccc(NC(=S)N/N=C/c2ccc([N+](=O)[O-])cc2)cc1 | 0 | 0 | 0 | 0 | 15 | 14 | 11 | 0 | 0 | 0 |  |
| C/C(=N\NC(=S)Nc1ccc(C(=O)NCC(=O)O)cc1)c1ccccc1 | 18 | 25 | 17 | 0 | 14 | 18 | 20 | 19 | 19 | 19 |  |
| C/C(=N\NC(=S)Nc1ccc(C(=O)NCC(=O)O)cc1)c1ccc(Br)cc1 | 19 | 25 | 18 | 0 | 15 | 17 | 20 | 23 | 19 | 20 |  |
| C/C(=N\NC(=S)Nc1ccc(C(=O)NCC(=O)O)cc1)c1ccc(C)cc1 | 22 | 25 | 26 | 25 | 19 | 25 | 29 | 27 | 32 | 21 | MIC (Priestia megaterium [11]): 12.5 µg/mL (≈ 32.5 µM); PI (Pseudomonas aeruginosa [22]): 4; MIC (Klebsiella pneumoniae [12]): 25 µg/mL (≈ 65 µM); MIC (Micrococcus luteus [13]): 12.5 µg/mL (≈ 32.5 µM); MIC (Escherichia coli [14]): 6.25 µg/mL (≈ 16.3 µM); MIC (Saccharomyces cerevisiae [15]): 6.25 µg/mL (≈ 16.3 µM); MIC (Staphylococcus aureus [16]): 6.25 µg/mL (≈ 16.3 µM); MIC (Proteus vulgaris [17]): 12.5 µg/mL (≈ 32.5 µM); MIC (Pseudomonas aeruginosa [18]): 3.12 µg/mL (≈ 8.12 µM); MIC (Bacillus spizizenii [19]): 12.5 µg/mL (≈ 32.5 µM); MIC (Candida albicans [20]): 25 µg/mL (≈ 65 µM); PI (Escherichia coli [21]): 2 |
| C/C(=N\NC(=S)Nc1ccc(C(=O)NCC(=O)O)cc1)c1ccc(Cl)cc1 | 0 | 0 | 0 | 0 | 15 | 14 | 9 | 0 | 0 | 0 |  |
| O=C(O)CNC(=O)c1ccc(NC(=S)NN=C(c2ccccc2)c2ccccc2)cc1 | 0 | 0 | 0 | 0 | 20 | 15 | 0 | 17 | 12 | 0 |  |
| O=C(O)CNC(=O)c1ccc(NC(=S)NN=C2CCCCC2)cc1 | 0 | 24 | 0 | 0 | 0 | 9 | 11 | 0 | 12 | 20 |  |
| O=C(O)CNC(=O)c1ccc(NC(=S)N/N=C2/CCc3ccccc32)cc1 | 28 | 25 | 20 | 20 | 18 | 18 | 28 | 25 | 28 | 20 | MIC (Priestia megaterium [11]): 50 µg/mL (≈ 131 µM); PI (Pseudomonas aeruginosa [22]): 2; MIC (Klebsiella pneumoniae [12]): 12.5 µg/mL (≈ 32.7 µM); MIC (Micrococcus luteus [13]): 12.5 µg/mL (≈ 32.7 µM); MIC (Escherichia coli [14]): 12.5 µg/mL (≈ 32.7 µM); PI (Micrococcus luteus [23]): 2; PI (Klebsiella pneumoniae [24]): 2; MIC (Saccharomyces cerevisiae [15]): 50 µg/mL (≈ 131 µM); MIC (Staphylococcus aureus [16]): 6.25 µg/mL (≈ 16.3 µM); MIC (Proteus vulgaris [17]): 12.5 µg/mL (≈ 32.7 µM); MIC (Pseudomonas aeruginosa [18]): 6.25 µg/mL (≈ 16.3 µM); MIC (Bacillus spizizenii [19]): 25 µg/mL (≈ 65.4 µM); MIC (Candida albicans [20]): 12.5 µg/mL (≈ 32.7 µM); PI (Proteus vulgaris [25]): 2; PI (Escherichia coli [21]): 2 |
| O=C(O)CNC(=O)c1ccc(NC(=S)N/N=C2/CC(=O)c3ccccc32)cc1 | 0 | 24 | 12 | 0 | 9 | 0 | 28 | 18 | 11 | 20 |  |
| O=C(O)c1cn(C2CC2)c2cc(N3CCNCC3)c(F)cc2c1=O [CIPROFLOXACIN] |  |  |  |  |  |  |  |  |  |  | MIC (Priestia megaterium [11]): 6.25 µg/mL (≈ 18.9 µM); MIC (Klebsiella pneumoniae [12]): 12.5 µg/mL (≈ 37.7 µM); zone of inhibition at 500 µg/mL (Klebsiella pneumoniae [26]): 25 mm; MIC (Micrococcus luteus [13]): 12.5 µg/mL (≈ 37.7 µM); zone of inhibition at 500 µg/mL (Micrococcus luteus [27]): 20 mm; MIC (Escherichia coli [14]): 12.5 µg/mL (≈ 37.7 µM); zone of inhibition at 500 µg/mL (Staphylococcus aureus [28]): 20 mm; zone of inhibition at 500 µg/mL (Bacillus spizizenii [29]): 22 mm; zone of inhibition at 500 µg/mL (Priestia megaterium [30]): 24 mm; MIC (Proteus vulgaris [17]): 12.5 µg/mL (≈ 37.7 µM); MIC (Bacillus spizizenii [19]): 6.25 µg/mL (≈ 18.9 µM); zone of inhibition at 500 µg/mL (Pseudomonas aeruginosa [31]): 24 mm; zone of inhibition at 500 µg/mL (Proteus vulgaris [32]): 23 mm |
| CC(=O)N1CCN(c2ccc(OCC3COC(Cn4ccnc4)(c4ccc(Cl)cc4Cl)O3)cc2)CC1 (stereo not given) [KETOCONAZOLE] |  |  |  |  |  |  |  |  |  |  | MIC (Saccharomyces cerevisiae [15]): 3.12 µg/mL (≈ 5.87 µM); zone of inhibition at 500 µg/mL (Candida albicans [33]): 22 mm; MIC (Candida albicans [20]): 6.25 µg/mL (≈ 11.8 µM); zone of inhibition at 500 µg/mL (Saccharomyces cerevisiae [34]): 23 mm |
